In assay [1] the test system is 17+HSV-1. In words: Antiviral assay, HSV-1 titering (viral titer / PFU on rabbit skin cells). The format is cell-based. The note with it: U2OS cells, 17+HSV-1 MOI=0.1, 48 h; ATR inhibitors 10 μM, Chk1 inhibitors 250 nM, aphidicolin 4 μM, KU55933 10 μM, Chk2 inhibitor II 5 μM, NU7441 1 μM.
The test system of assay [2] is ICP4. In words: ICP4 expression by immunofluorescence in HSV-1 infected cells. The format is cell-based. The note with it: VE-822 10 μM, 17+HSV-1 MOI=10, 5 h.p.i. As for the experimental part: (§1) U2OS cells were plated onto coverslips at 75,000 cells per well of 24-well plates and the following day infected at an MOI=10 for the indicated times.
(§2) Thereafter, cells were processed for immunofluorescence in one of two ways that incorporated an Fc receptor blocking step: (1) cells were fractionated in situ by pre-extraction following previously published procedures; briefly, cells were incubated in Cytoskeleton Buffer (CB; 100 mM PIPES, 300 mM sucrose, 100 mM NaCl, 3 mM MgCl2, 1 mM EGTA) for 5 min on ice followed by incubation in Cytoskeleton Stripping Buffer (CSK; 10 mM Tri-HCL pH 7.4, 10 mM NaCl, 3 mM MgCl2, 1% Tween-40, 1% Tween-20, 0.5% sodium deoxycholate) for 5 min on ice. Cells were then washed 3× with PBS and fixed with Streck fixative (150 mM 2-bromo-2-nitro-1,3-propanediol, 108 mM diazolidinyl urea, 10 mM sodium citrate, 50 mM EDTA) for 30 min at RT, washed with PBS, and permeabilized with 0.5% Triton X-100 in 100 mM Tris-HCL pH 7.4 plus 50 mM EDTA for 15 min at RT. Cells were then incubated sequentially with Fc Receptor Blocker (Innovex Biosciences, catalog no. NB309) for 30 min at RT followed by blocking buffer (5% goat serum, 0.1% NP-40, 20 mM Tris-HCL pH 7.4, 150 mM NaCl) for 30 min at RT. (2) In some cases cells were fixed in 3.7% paraformaldehyde in PBS for 5 min at RT followed by blocking with Fc Receptor Blocker and blocking buffer as above. […]

Assay [3] relates to viral replication centers. Kind of assay: Viral replication center formation / maturation (immunofluorescence). The format is cell-based, HSV-1. The note with it: for replication center formation: 5 h. As for the experimental part: (§3) Cells were plated at 5×10^5 cells per well in 6-well plates and the following morning incubated with inhibitors. Following 1 h pre-incubation with inhibitors, cells were infected with HSV-1 at an MOI=0.1 in a volume of 200 uL for 1 h, viral inoculum removed, and cells overlaid with media containing fresh inhibitors, and cultured for 48 h. Following 48 h, cells and supernatant were harvested by scraping, separated into two Eppendorf tubes, and centrifuged at 10,000×g for 40 min. The cell pellet from one tube was used for extraction of DNA (DNazol according to manufacturer's recommendation, ThermoFisher Sci. catalog no. 10503027) and the second pellet was re-suspended in 200 uL serum-free MEM, freeze-thawed 3×, and virus titered on rabbit skin cells. For HSV-1 titering, rabbit skin cells were plated at 150,000 cells/well of 24-well plates and the following day infected with 10-fold serial dilutions of virus harvested from antiviral experiments. Cells were incubated for 48 h, stained with 1% crystal violet solution, and plaques counted from three separate wells for each experimental sample. Q-PCR was conducted using 20 ng input DNA, TaqMan® Fast Universal PCR 2× Master Mix (Applied Biosystems, catalog no. 4352041) along with TaqMan probes and target-specific primers (Applied Biosystems, Assays by Design part no. 4331348) against HSV-1 polymerase. Samples were run on a StepOnePlus Real-Time PCR System (Applied Biosystems) using fast cycling: denaturation at 95° C. for 20 sec followed by 40 cycles at 95° C. for 1 sec and 60° C. for 20 sec. Additional experimental compounds were also tested as follows: […] Cyclohexamide (Sigma, catalog no. C7698) or DMSO vehicle was added to the overlay media at 50 ug/mL and the infection allowed to proceed for 5 h. (2) For replication inhibition, phosphonoacetic acid (PAA) was added at time of virus adsorption and included in overlay media at 400 ug/mL for 5 h. (3) A final [3 mM] hydroxyurea was added at the time of cell plating and incubated for 18 h. […]

For assay [4], the system named is ICP8. Kind of assay: ICP8 expression in HSV-1 infected cells (data not shown). The format is cell-based. The note with it: VE-822 10 μM. On the procedure:
as §1, §2

Assay [5] relates to ATR. In words: ATR activation (pATR S428 immunofluorescence) in HSV-1 infected U2OS cells. In kind it is cell-based. The note with it: for ATR activation (pATR labeling): 5 h. On the procedure:
as §3

In assay [6] the test system is Chk1. Kind of assay: Chk1 activation (pChk1 S345 Western blot) in HSV-1 infected cells. In kind it is cell-based. As for the experimental part:
5×10^5 cells were plated on 6-well plates and infected the following day with 17syn+(MOI=10). At the indicated times, cells were lysed in buffer containing 1% NP-40, 150 mM sodium chloride, 20 mM Tris-HCL pH 8.0, 2 mM EDTA, and 5% glycerol supplemented with phosphatase and protease inhibitor cocktails (Roche, PhosSTOP tablets; catalog no. 04906837001; ThermoFisherSci., Halt Protease Inhibitor Cocktail, catalog no. 1862209). For SDS-PAGE, 20 ug of protein was mixed with NuPAGE 4×LDS sample buffer (ThermoFisher Sci., catalog no. NP0007) along with NuPAGE Sample Reducing Agent (ThermoFisher Sci., catalog no. NP0004) and run on 4-12% Bis-Tris NuPAGE gels (ThermoFisher Sci.) with NuPAGE MOPS SDS running buffer (ThermoFisher Sci., catalog no. NP000102). Gels were transferred onto 0.22 μm PVDF in Towbin buffer (0.2 M Glycine, 25 mM Tris Base) containing 20% MeOH for 2 h under constant voltage (30V), the membrane blocked with 5% non-fat dry milk (NFDM)-TBST (20 mM Tris-HCL pH 7.4, 150 mM NaCl, 0.1% Tween-20) and probed with antibodies diluted in 1% NFDM-TBST overnight at 4° C. For ATR and ATM western blots, samples were processed as above except DTT (50 mM, Cell Signaling, catalog no. 7016) was used as the reducing agent and samples were run on NuPAGE Novex 3-8% Tris-acetate gels (ThermoFisher Sci.) with NuPAGE Tris-acetate SDS running buffer (ThermoFisher Sci., catalog no. LA0041). […]
Background: In western blotting, separated proteins are transferred to a membrane and probed.

Assay [7] has as its system Chk1. In words: Chk1 activation following KD6 infection of permissive Vero cell line K5. The format is cell-based. The note with it: KD6 infection of Vero cell line K5, cycloheximide.

Entries after “also recorded” stand apart in the source; their conditions may differ.

On to `Cn1cc(-c2[nH]c3cc(NC(=O)[C@H](N)C4CCCCC4)cc4c3c2C=NNC4=O)cn1` [PF477736], for which the “viral titers (HSV-1 PFU, virus production)” value in assay [1] was “significantly impact virus production”.
For the molecule `CNCc1ccc(-c2cc(-c3nc(-c4ccc(S(=O)(=O)C(C)C)cc4)cnc3N)on2)cc1` [VE-822], in assay [2], the “expression of ICP4” value is “blocked expression of ICP4; also recorded: blocking expression of both ICP4 and ICP8”. In assay [3] (VE-822, during HSV-1 infection), the “maturation of replication centers” value is listed as “blocks maturation of replication centers”. In addition, the “expression of ICP8” value in assay [4] was “blocked expression; also recorded: blocking expression of both ICP4 and ICP8”. Besides, the “ATR activation (pATR)” value in assay [5] (VE-822 10 μM, 17+HSV-1 MOI=10, 5 h.p.i.) was “blocked ATR activation; also recorded: blocks activation of both ATR and Chk1”. The “Chk1 activation / phosphorylation” value in assay [6] (VE-822 10 μM, 17+HSV-1 MOI=10, Western blot) was “Chk1 activation was also blocked; also recorded: blocks activation of both ATR and Chk1; also recorded: blocks phosphorylation of Chk1”.
Turning to `O=C(O)CP(=O)(O)O` [PAA, phosphonoacetic acid], the replication center formation result in assay [3] (PAA 400 ug/mL) is “retards replication center formation”. Besides, in assay [5] (PAA 400 ug/mL from virus adsorption), the “ATR activation (pATR labeling)” value is “partially suppressed ATR activation; also recorded: partial suppression; also recorded: partially blocks pATR labeling”.
Take `C[C@@]1(CO)[C@H](O)CC[C@@]2(C)[C@H]1CC[C@H]1C[C@@H]3C[C@@]12CC[C@]3(O)CO` [aphidicolin]: in assay [1], the “viral titers (HSV-1 PFU, virus production)” value was “significantly inhibit viral titers; also recorded: significantly impact virus production”.
As for `C[C@@H]1C[C@@H]([C@H](O)CC2CC(=O)NC(=O)C2)C(=O)[C@@H](C)C1` [cycloheximide], the replication center formation result in assay [3] (cycloheximide 50 ug/mL) is on record as “retards replication center formation”. For the same molecule, the “ATR activation (pATR labeling)” value in assay [5] (cycloheximide 50 ug/mL in overlay media) is “completely blocked ATR activation; also recorded: complete suppression; also recorded: completely suppresses pATR labeling”. For the same molecule, the Chk1 activation result in assay [7] is given as “blocked”; in assay [6] (cycloheximide), “complete suppression”.

Source of the values: patent US11730734B2, “Use of ATR and Chk1 inhibitor compounds” (University of Florida Research Foundation, Incorporated, priority 2016, dated 2023).
